Read-outs that look alike come from different tables or passages of the source.
Assays:
Assay type in all cases: cell-based, human
[1] = test system: MOLM14 cells; experiment: Proliferation assay (spheroid confluence, 8 days), MOLM14; settings: read-out: spheroid assay_MOLM14 IC50
Procedure, shortened: (§1)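 Absolute IC50 derived from spheroid confluence imaged on day 8, scaled between DMSO (0%) and a cytotoxic low control such as 1 μM staurosporin, fitted with variable slope, bounds fixed at 0 and 100%. Seeding 200 cells/well (300 for KO-52), ultra-low attachment plates, 0.3% DMSO, 37° C.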

[2] = test system: OCI-AML3 cells; experiment: Proliferation assay (spheroid confluence, 8 days), OCI-AML3; settings: Homo sapiens, OCI-AML-3, OCI-AML3; read-out: spheroid assay_OCI-AML3 IC50
Procedure: The anti-proliferative effect of menin/MLL protein/protein interaction inhibitor test compounds was assessed in human leukemia cell lines. The cell line MOLM14 harbors a MLL translocation and expresses the MLL fusion protein MLL-AF9, respectively, as well as the wildtype protein from the second allele. OCI-AML3 cells that carry the NPM1c gene mutation were also tested. […] KO-52 was used as a control cell line containing two MLL (KMT2A) wildtype alleles in order to exclude compounds that display general cytotoxic effects.
MOLM14 cells were cultured in RPMI-1640 (Sigma Aldrich) supplemented with 10% heat-inactivated fetal bovine serum (HyClone), 2 mM L-glutamine (Sigma Aldrich) and 50 μg/ml gentamycin (Gibco). KO-52 and OCI-AML3 cell lines were propagated in alpha-MEM (Sigma Aldrich) supplemented with 20% heat-inactivated fetal bovine serum (HyClone), 2 mM L-glutamine (Sigma Aldrich) and 50 μg/ml gentamycin (Gibco).
In order to assess the anti-proliferative effects, 200 MOLM14 cells, 200 OCI-AML3 cells or 300 KO-52 cells were seeded in 200 μl media per well in 96-well round bottom, ultra-low attachment plates (Costar, catalogue number 7007). Cell seeding numbers were chosen based on growth curves to ensure linear growth throughout the experiment. Test compounds were added at different concentrations and the DMSO content was normalized to 0.3%. Cells were incubated for 8 days at 37° C. and 5% CO2. Spheroid like growth was measured in real-time by live-cell imaging (IncuCyteZOOM, Essenbio, 4×objective) acquiring images at day 8. Confluence (%) as a measure of spheroid size was determined using an integrated analysis tool.
In order to determine the effect of the test compounds over time, the confluence in each well as a measure of spheroid size, was calculated. Confluence of the highest dose of a reference compound was used as baseline for the LC (Low control) and the confluence of DMSO treated cells was used as 0% cytotoxicity (High Control, HC).
Absolute IC50 values were calculated as percent change in confluence as follows:
LC=Low Control: cells treated with e.g. 1 μM of the cytotoxic agent staurosporin, or e.g. cells treated with a high concentration of an alternative reference compound
HC=High Control: Mean confluence (%) (DMSO treated cells)
% Effect=100−(100*(Sample−LC)/(HC−LC))
GraphPad Prism (version 7.00) was used to calculate the IC50. Dose-response equation was used for the plot of % Effect vs Log10 compound concentration with a variable slope and fixing the maximum to 100% and the minimum to 0%.

[3] = test system: KO-52 cells; experiment: Proliferation assay (spheroid confluence, 8 days), KO-52 control cell line; settings: read-out: spheroid assay_KO-52 IC50
Procedure, shortened: as §1

[4] = test system: MEIS1 mRNA expression; experiment: MEIS1 mRNA expression assay (Quantigene Singleplex) in MOLM14 cells; settings: 48 hours incubation
Procedure, shortened: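 Read-out: MEIS1 transcript counts, background-subtracted and divided by RPL28, expressed as fold change over DMSO-treated cells, then dose-response modelled for IC50. MOLM14 cells (3,750/well) received graded compound for 48 h before lysis and QuantiGene hybridization at 55 °C.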

| Structure (SMILES) | IC50 ([1]; Homo sapiens, MOLM-14, MOLM14) [nM] | IC50 [2] [nM] | IC50 ([4]; Homo sapiens, MOLM-14, 48 h) [nM] | IC50 ([1]; MOLM14) [nM] | IC50 [4] [nM] | IC50 ([3]; Homo sapiens) [nM] | IC50 [3] [nM] |
| --- | --- | --- | --- | --- | --- | --- | --- |
| Cc1cncc2c1c(CC1CCN(CC3CCN(C(=O)CC#N)CC3)C1)cn2-c1ccc(F)cc1C(=O)N(C)C(C)C (single isomer, unassigned) [Compound 60] | 13 | 13 | 7 |  |  | 2700 |  |
| CNC(=O)[C@H]1CC[C@H](CN2CCC(Cc3cn(-c4ccc(F)cc4C(=O)N(C)C(C)C)c4cncc(C)c34)C2)CC1 (single isomer, unassigned) [Compound 70] |  | 68 | 48 | 40 |  | 8500 |  |
| Cc1cncc2c1c(C[C@@H]1CCN(CC3CCOCC3)C1)cn2-c1ccc(F)cc1C(=O)N(CCO)C(C)C [Compound 357] | 8 |  | 15 |  |  | 3000 |  |
| CNC(=O)[C@H]1CC[C@H](CN2CCC(Cc3cn(-c4ccc(F)cc4C(=O)N(C)C(C)C)c4cncc(C)c34)C2)CC1 (single isomer, unassigned) [Compound 71] |  |  |  | 83 | 48 |  | > 15000 |
| COCCN(C)CCCC(C(C)C)N1CC[C@@H](Cc2cn(-c3ccc(F)cc3C(=O)N(C)C(C)C)c3cncc(C)c23)C1 (stereo partly shown) [Compound 1] | 2 |  | 4 |  |  | 7500 |  |
| Cc1cncc2c1c(CC1CN(CC3CCOCC3)C1)cn2-c1ccc(F)cc1C(=O)N(C)C(C)C [Compound 61] | 10 |  | 23 |  |  | 7900 |  |
| Cc1cncc2c1c(C[C@H]1CCN(C[C@H]3CC[C@H](NS(C)(=O)=O)CC3)C1)cn2-c1ccc(F)cc1C(=O)N(C)C(C)C (single isomer, unassigned) [Compound 69] | 5 | 21 | 17 |  |  | 11000 |  |
| CC(=O)N1CCC(CN2CC[C@@H](Cc3cn(-c4ccc(F)cc4C(=O)N(C)C(C)C)c4cncc(C)c34)C2)CC1 (single isomer, unassigned) [Compound 50] | 39 |  | 89 |  |  | 2300 |  |
| COCC(=O)N1CCC(CN2CCC(Cc3cn(-c4ccc(F)cc4C(=O)N(C)C(C)C)c4cncc(C)c34)C2)CC1 (single isomer, unassigned) [Compound 59] | 11 | 12 | 9 |  |  | 2100 |  |
| Cc1cncc2c1c(CC1CN(CC3CCN(C(=O)CC#N)CC3)C1)cn2-c1ccc(F)cc1C(=O)N(C)C(C)C [Compound 67] | 48 |  | ~68 |  |  | 12000 |  |
| Cc1cncc2c1c(C[C@H]1CCN(CC3CCOCC3)C1)cn2-c1ccc(F)cc1C(=O)N(C)C(C)C (single isomer, unassigned) [Compound 43] | 14 | 23 | 24 |  |  | 3300 |  |
| Cc1cncc2c1c(C[C@@H]1CCN(CC3CCOCC3)C1)cn2-c1ccc(F)cc1C(=O)N(C[C@H](C)O)C(C)C (single isomer, unassigned) [Compound 365b] | 8 | 11 | 11 |  |  |  |  |
| Cc1cncc2c1c(C[C@@H]1CCN(CC3CCOCC3)C1)cn2-c1ccc(F)cc1C(=O)N(C)C(C)C (single isomer, unassigned) [Compound 42] | 31 |  | 45 |  |  | 2800 |  |

Now from value to compound, other results behind:

| IC50 ([1]; Homo sapiens, MOLM-14, MOLM14) [nM] | IC50 [2] [nM] | IC50 ([4]; Homo sapiens, MOLM-14, 48 h) [nM] | IC50 ([1]; MOLM14) [nM] | IC50 [4] [nM] | Structure (SMILES) | IC50 ([3]; Homo sapiens) [nM] | IC50 [3] [nM] |
| --- | --- | --- | --- | --- | --- | --- | --- |
| 3 |  | 17 |  |  | Cc1cncc2c1c(C[C@H]1CCN(C(C)C3CCOCC3)C1)cn2-c1ccc(F)cc1C(=O)N(C)C(C)C (mixture of isomers) [Compound 49] | 3000 |  |
| < 1.8 |  | 6 |  |  | CCN(C(=O)c1cc(F)ccc1-n1cc(CC2CN(C(C(C)C)[C@H]3C[C@@H](N4C[C@H]5CN(C(C)=O)C[C@@H]5C4)C3)C2)c2c(C)cncc21)C(C)C (mixture of isomers) [Compound 38a] | 800 |  |
| 71 |  | 43 |  |  | Cc1cncc2c1c(C[C@@H]1CCN(CC(C)C)C1)cn2-c1ccc(F)cc1C(=O)N(C)C(C)C (single isomer, unassigned) [Compound 44] | 4700 |  |
| 8 |  | 27 |  |  | CCN(C(=O)c1cc(F)ccc1-n1cc(CC2CN(C(C(C)C)[C@H]3C[C@@H](N4CCN(S(C)(=O)=O)CC4)C3)C2)c2c(C)cncc21)C(C)C (stereo partly shown) [Compound 37a] | 800 |  |
| 2 |  | 5 |  |  | CC(=O)N1C[C@@H]2CN([C@H]3C[C@@H]([C@@H](C(C)C)N4CC(Cc5cn(-c6ccc(F)cc6C(=O)N(C)C(C)C)c6cncc(Cl)c56)C4)C3)C[C@H]2C1 (single isomer, unassigned) [Compound 39a] | > 15000 |  |
| 5 |  | 22 |  |  | CC(=O)N1CCN([C@H]2C[C@@H]([C@@H](C(C)C)N3CC(Cc4cn(-c5ccc(F)cc5C(=O)N(C)C(C)C)c5cncc(C)c45)C3)C2)CC1 (single isomer, unassigned) [Compound 32a] | 5500 |  |
| 176 |  | 183 |  |  | CC(=O)N1CCC(CN2CCC(Cc3cn(-c4ccc(F)cc4C(=O)N(C)C(C)C)c4cncc(C)c34)CC2)CC1 [Compound 58] | 10400 |  |
| 18 |  | 46 |  |  | COCC(=O)N1CCC(CN2CC(Cc3cn(-c4ccc(F)cc4C(=O)N(C)C(C)C)c4cncc(C)c34)C2)CC1 [Compound 66] | 7700 |  |
| 14 |  | 15 |  |  | CC(C)C([C@H]1C[C@@H](N(C)C)C1)N1CC(Cc2cn(-c3ccc(F)cc3C(=O)N(C)C(C)C)c3cncc(Cl)c23)C1 (stereo partly shown) [Compound 41] | 1400 |  |
| 10 |  | 11 |  |  | Cc1cncc2c1c(CC1CN([C@@H](C(C)C)[C@H]3C[C@@H](N4CCC(S(C)(=O)=O)CC4)C3)C1)cn2-c1ccc(F)cc1C(=O)N(C)C(C)C [Compound 33a] | 3000 |  |
| 53 |  | 56 |  |  | Cc1cncc2c1c(C[C@H]1CCN(CC(C)C)C1)cn2-c1ccc(F)cc1C(=O)N(C)C(C)C (single isomer, unassigned) [Compound 45] | 6200 |  |
| 53 | 121 | 83 |  |  | CC(=O)N1CCC(CN2CC(Cc3cn(-c4ccc(F)cc4C(=O)N(C)C(C)C)c4cncc(C)c34)C2)CC1 [Compound 63] | 5900 |  |
| 3 | 7 | 9 |  |  | Cc1cncc2c1c(C[C@H]1CCN([C@@H](C)C3CCOCC3)C1)cn2-c1ccc(F)cc1C(=O)N(C)C(C)C (single isomer, unassigned) [Compound 49b] | 4100 |  |

— patent publication US20230250096A1, “SUBSTITUTED PHENYL-1H-PYRROLO[2,3-c] PYRIDINE DERIVATIVES” (Janssen Pharmaceutica NV, priority 2021, published 2023)
